Reference: BindingDB's records for doi:10.1016/j.bmcl.2018.11.048 (Advinus Therapeutics, 2019)

Experiments:
[1] = target: T1, Fatty-acid amide hydrolase 1 (Homo sapiens, UniProt O00519); test: Inhibition of human transmembrane domain deficient FFAH expressed in Escherichia coli using AAMCA as substrate incubated for 1 min measured for 50 mins by fluorescence assay
T1 sequence (O00519 whole entry): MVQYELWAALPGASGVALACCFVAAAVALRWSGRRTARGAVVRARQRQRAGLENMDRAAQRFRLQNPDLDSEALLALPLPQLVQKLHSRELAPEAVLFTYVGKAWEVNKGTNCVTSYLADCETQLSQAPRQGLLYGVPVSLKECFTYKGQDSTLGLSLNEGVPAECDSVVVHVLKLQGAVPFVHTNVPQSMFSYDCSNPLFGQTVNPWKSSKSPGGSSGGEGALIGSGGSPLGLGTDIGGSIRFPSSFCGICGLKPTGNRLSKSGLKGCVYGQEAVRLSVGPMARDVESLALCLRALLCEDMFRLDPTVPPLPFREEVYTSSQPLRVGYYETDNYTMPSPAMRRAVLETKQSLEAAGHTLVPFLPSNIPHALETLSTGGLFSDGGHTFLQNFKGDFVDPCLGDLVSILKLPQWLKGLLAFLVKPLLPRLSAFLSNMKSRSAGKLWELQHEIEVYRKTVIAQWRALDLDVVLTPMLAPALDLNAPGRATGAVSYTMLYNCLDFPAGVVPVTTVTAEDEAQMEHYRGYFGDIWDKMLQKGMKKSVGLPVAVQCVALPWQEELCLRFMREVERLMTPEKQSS

[2] = target: T2, Fatty-acid amide hydrolase 1 [30-579] (Rattus norvegicus, UniProt P97612); test: Inhibition of rat FFAH expressed in Escherichia coli using AAMCA as substrate incubated for 1 min measured for 50 mins by fluorescence assay
T2 construct: 30-579
T2 sequence (P97612 whole entry): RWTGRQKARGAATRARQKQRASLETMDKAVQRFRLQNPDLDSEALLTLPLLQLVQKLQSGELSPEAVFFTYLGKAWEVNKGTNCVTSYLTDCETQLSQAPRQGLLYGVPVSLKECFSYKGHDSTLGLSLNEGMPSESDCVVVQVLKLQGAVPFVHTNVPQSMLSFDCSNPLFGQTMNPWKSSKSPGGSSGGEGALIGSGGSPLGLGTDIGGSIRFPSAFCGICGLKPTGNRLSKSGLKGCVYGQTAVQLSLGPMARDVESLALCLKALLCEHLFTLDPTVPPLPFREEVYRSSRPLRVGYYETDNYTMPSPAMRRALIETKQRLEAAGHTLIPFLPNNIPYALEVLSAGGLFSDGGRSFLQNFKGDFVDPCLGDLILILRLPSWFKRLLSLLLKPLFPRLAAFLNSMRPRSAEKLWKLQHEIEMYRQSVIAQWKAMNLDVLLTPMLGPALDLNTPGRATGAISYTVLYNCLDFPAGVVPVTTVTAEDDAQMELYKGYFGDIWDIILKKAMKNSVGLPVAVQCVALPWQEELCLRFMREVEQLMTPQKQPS

SMILES	IC50 [1] [nM]	IC50 [2] [nM]
O=C(NC1CCC(=Cc2cccc(Oc3ccc(C(F)(F)F)cn3)c2)CC1)c1cncnc1 (stereo unspecified) [US9682953, 20.A-20]	2.6	
CCOC(=O)Cn1nc2c(c1C(C)C)C(c1ccc(Cl)cc1C)N(c1cc(Cl)ccc1C)C2=O (stereo unspecified) [US9682953, 20.A-1]	2.2	

The remaining lines, values ahead:

IC50 [1] [nM]	IC50 [2] [nM]	SMILES
2.2		O=C(NC1CCC(=Cc2cccc(Oc3ccc(C(F)(F)F)cn3)c2)CC1)c1cnc2[nH]ccc2c1 (stereo unspecified) [US9682953, 20.A-13]
3	29	Cc1cc(C(=O)NC2CCC(=Cc3cccc(Oc4ccc(C(F)(F)F)cn4)c3)CC2)cnc1N (stereo unspecified) [US9682953, 20.A-5]
2.6		O=C(NC1CCC(=Cc2cccc(Oc3ccc(C(F)(F)F)cn3)c2)CC1)c1cn[nH]c1 (stereo unspecified) [US9682953, 20.A-12]
